Experimental data published in paper PMC7668422 (Anesthesia and analgesia, 2020).

Tests used:
[1] = biological target: T1, human KOR (Homo sapiens, UniProt P41145); assay: biochemical; type: biochemical
Target sequence in this assay (P41145 whole entry, the tested form may be a part): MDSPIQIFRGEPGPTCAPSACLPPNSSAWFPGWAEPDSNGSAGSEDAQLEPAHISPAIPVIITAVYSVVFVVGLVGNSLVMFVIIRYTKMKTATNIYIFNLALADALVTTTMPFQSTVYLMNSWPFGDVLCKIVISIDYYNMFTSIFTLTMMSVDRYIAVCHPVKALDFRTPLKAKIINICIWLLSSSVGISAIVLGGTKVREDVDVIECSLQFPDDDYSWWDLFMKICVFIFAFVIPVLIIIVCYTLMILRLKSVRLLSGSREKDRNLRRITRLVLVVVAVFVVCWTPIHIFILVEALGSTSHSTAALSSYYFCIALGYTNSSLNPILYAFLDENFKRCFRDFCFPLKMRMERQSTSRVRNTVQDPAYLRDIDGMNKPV
Target sequence in this assay (P63096 2-354 partner limits assumed): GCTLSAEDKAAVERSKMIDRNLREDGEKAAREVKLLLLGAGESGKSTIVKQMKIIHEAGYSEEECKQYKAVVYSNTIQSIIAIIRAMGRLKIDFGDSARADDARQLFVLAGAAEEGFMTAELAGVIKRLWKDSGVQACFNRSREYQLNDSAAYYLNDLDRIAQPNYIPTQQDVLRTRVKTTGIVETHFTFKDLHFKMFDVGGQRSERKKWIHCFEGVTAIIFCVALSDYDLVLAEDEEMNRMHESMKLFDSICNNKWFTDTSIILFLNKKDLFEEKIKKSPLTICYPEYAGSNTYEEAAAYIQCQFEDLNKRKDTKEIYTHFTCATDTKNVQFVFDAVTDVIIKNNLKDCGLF
Target sequence in this assay (P62873 2-340 partner limits assumed): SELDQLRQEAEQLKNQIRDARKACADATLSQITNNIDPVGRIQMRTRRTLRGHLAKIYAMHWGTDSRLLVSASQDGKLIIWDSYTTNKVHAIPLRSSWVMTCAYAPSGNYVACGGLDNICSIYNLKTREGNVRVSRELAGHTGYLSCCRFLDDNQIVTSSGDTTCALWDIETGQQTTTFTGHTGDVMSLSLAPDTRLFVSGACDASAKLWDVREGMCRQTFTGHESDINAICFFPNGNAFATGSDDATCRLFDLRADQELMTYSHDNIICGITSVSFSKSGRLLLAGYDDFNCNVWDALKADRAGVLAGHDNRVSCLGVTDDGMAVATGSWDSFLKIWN
Target sequence in this assay (P59768 2-68 partner limits assumed): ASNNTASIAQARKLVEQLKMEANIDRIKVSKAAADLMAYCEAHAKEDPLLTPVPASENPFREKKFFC

[2] = biological target: mKOR-tdTomato fusion protein in Neuro2A cells (Mus musculus, UniProt P33534); assay: KOR internalization in N2A-mKOR-tdT cells, fluorescence microscopy; type: cell-based
[3] = biological target: κ-opioid receptor (KOR) (Homo sapiens, UniProt P41145); assay: biochemical; type: binding
[4] = test system: KOR; settings: no reference given; cited from earlier work
[5] = cited from earlier work
[6] = biological target: T2, μ-opioid receptor (MOR) (Homo sapiens, UniProt P35372); assay: Affinity for the μ-opioid receptor; type: binding; settings: mean ± SD; no method described
[7] = biological target: T2, μ-opioid receptor (MOR); settings: cited from earlier work
[8] = biological target: T1, human KOR; type: cell-based
Target sequence in this assay (P41145 whole entry, the tested form may be a part): as the sequence (P41145 whole entry, the tested form may be a part) above

Sequence of κ-opioid receptor (KOR) (P41145 whole entry): as the sequence (P41145 whole entry, the tested form may be a part) above
Sequence of mKOR-tdTomato fusion protein in Neuro2A cells (P33534 whole entry, the tested form may be a part): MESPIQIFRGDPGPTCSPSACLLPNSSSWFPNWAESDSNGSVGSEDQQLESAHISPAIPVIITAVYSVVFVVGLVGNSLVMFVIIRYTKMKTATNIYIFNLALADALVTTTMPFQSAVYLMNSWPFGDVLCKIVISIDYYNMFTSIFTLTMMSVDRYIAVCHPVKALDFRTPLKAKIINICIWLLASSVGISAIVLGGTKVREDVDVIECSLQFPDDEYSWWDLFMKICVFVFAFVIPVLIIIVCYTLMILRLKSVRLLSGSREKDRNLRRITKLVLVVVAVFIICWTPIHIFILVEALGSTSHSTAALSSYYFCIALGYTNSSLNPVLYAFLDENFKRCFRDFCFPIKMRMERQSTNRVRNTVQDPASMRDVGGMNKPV
T2 sequence (P35372 whole entry, species assumed): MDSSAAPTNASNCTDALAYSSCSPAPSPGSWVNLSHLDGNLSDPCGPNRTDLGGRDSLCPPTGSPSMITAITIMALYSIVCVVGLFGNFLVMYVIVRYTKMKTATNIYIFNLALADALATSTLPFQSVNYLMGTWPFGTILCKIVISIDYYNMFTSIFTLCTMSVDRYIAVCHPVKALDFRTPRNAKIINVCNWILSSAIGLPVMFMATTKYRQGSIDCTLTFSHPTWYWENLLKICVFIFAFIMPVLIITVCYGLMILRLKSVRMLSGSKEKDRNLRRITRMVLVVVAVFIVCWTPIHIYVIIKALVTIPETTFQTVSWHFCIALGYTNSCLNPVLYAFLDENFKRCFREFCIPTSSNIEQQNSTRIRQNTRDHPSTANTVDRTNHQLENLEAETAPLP

## COC(=O)[C@@H]1C[C@H](OC(C)=O)C(=O)[C@H]2[C@@]1(C)CC[C@H]1C(=O)O[C@H](c3ccoc3)C[C@]21C [salvinorin A]
[1]
  agonist character, G protein activation pathway: full agonist
  concentration giving full activation of the receptor: above 1 μM

## C[C@@]12CCCCC[C@@H](Cc3ccc(O)cc31)[C@@H]2N [dezocine]
[2]; 2 μM dezocine co-incubated with 0.4 μM butorphanol for 30 min
  effect on butorphanol-induced KOR internalization: abolish the KOR internalization
[3]
  Ki: 56 ± 2 nM

## CC(C)[C@@H](CN1CC[C@@](C)(c2cccc(O)c2)[C@@H](C)C1)NC(=O)[C@H]1Cc2ccc(O)cc2CN1 [JDTic]
[4]
  agonistic activity at KOR: no agonistic activity

## Oc1ccc2c(c1)[C@@]13CCCC[C@@]1(O)[C@@H](C2)N(CC1CCC1)CC3 [butorphanol]
[5]; clinical trial for perioperative pain management
  analgesic potency relative to morphine: ~6 times
[5]; discussion statement, no reference given
  potency relative to morphine: 5–7 fold
[2]; butorphanol 0.1 μM to 8 μM, from 5 min
  KOR internalization: KOR internalization was observed
[6]
  affinity for the μ-opioid receptor: 2.4 ± 1.2 nM
[3]
  Kd: 0.1 ± 0.02 nM
  Ki: 0.1 ± 0.02 nM
  affinity for KOR relative to μ-opioid receptor: about twenty-fold
[7]
  agonist character at MOR: partial μ-opioid receptor (MOR) agonist
[1]
  EC50: 2.8 nM
  agonist character, G protein activation pathway: partial, high affinity agonist
  maximal G protein activation relative to salvinorin A: about 50%
[8]
  agonist character, β-arrestin recruitment pathway: full agonist
